Where “and” joins values, the source holds several entries; their conditions need not be identical. Equal entries are not always repeated.
Columns and labels:
[1] = system: A9G (5′-TCGACAAAAAGAAAAG); assay: Binding of 5′-32P-endlabeled oligonucleotide to PNA-Sepharose; conditions: DNA A9G; PNA on solid support (CNBr-Sepharose); 16 hr at 20° C. in TE
(dA)5(dG)(dA)4 = assay: Melting temperature (Tm) of hybrid with oligodeoxyribonucleotide; assay type: binding; conditions: oligo 4 (5′-AAA-AAG-AAA-A), 10 mM phosphate, 1 mM EDTA, pH 7.2; for Tm, Medium Salt: 140 mM NaCl; for Tm, High Salt: 500 mM NaCl; for Tm, Low Salt: no sodium chloride
From the text: (§1) 2. Upon formation of DNA duplexes (dsDNA) from single strand DNA, the extinction coefficient decreases (hypochromicity). Thus, the denaturing of DNA can be followed by measuring changes in the absorbance, for example, as a function of […], the temperature where 50% of a duplex has disappeared to give single strands.
(§2) Duplexes were formed from the single-stranded oligodeoxyribonucleotides and the PNAs listed below. Typically 0.3 OD260 of the T-rich strand was hybridized with 1 equivalent of the other strand by heating to 90° C. for 5 min, cooling to room temperature and kept for 30 min and finally stored in a refrigerator at 5° C. for at least 30 min. The buffers used were all 10 mM in phosphate and 1 mM in EDTA. The low salt buffer contained no sodium chloride, whereas the medium salt buffer contained 140 mM NaCl and the high salt buffer 500 mM NaCl. The pH of all the buffers was 7.2. The melting temperature of the hybrids were determined on a Gilford Response apparatus. The following extinction coefficients were used A: 15.4 ml/μmol.cm; T: 8.8; G: 11.7 and C: 7.3 for both normal oligonucleotides and PNA. The melting curves were recorded in steps of 0.5 C/min. The Tm were determined from the maximum of the 1st derivative of the plot of A260 vs temperature.

[2] = system: mix (5′-GATCACGCGTATACGCGT); assay: Binding of 5′-32P-endlabeled oligonucleotide to PNA-Sepharose; conditions: DNA mix; PNA on solid support (CNBr-Sepharose); 16 hr at 20° C. in TE
5′-AAA-AGA-AGA-A = assay: Melting temperature (Tm) of hybrid with oligodeoxyribonucleotide; assay type: binding; conditions: oligo 7 (5′-AAA-AGA-AGA-A); 10 mM phosphate, 1 mM EDTA, 140 mM NaCl, pH 7.2
From the text: as §1, §2
7. 5′-AAA-AGA-AGA-A (See SEQ ID NO:13)

[3] = system: A8G2 (5′-GAAGAAGAAACTGAC); assay: Binding of 5′-32P-endlabeled oligonucleotide to PNA-Sepharose; conditions: DNA A8G2; PNA on solid support (CNBr-Sepharose); 16 hr at 20° C. in TE
5′-AAG-AAG-AAA-A = assay: Melting temperature (Tm) of hybrid with oligodeoxyribonucleotide; assay type: binding; conditions: oligo 5 (5′-AAG-AAG-AAA-A); 10 mM phosphate, 1 mM EDTA, 140 mM NaCl, pH 7.2
From the text: as §1, §2
5. 5′-AAG-AAG-AAA-A (See SEQ ID NO:9)

(dA)10 = assay: as above; assay type: binding; conditions: for Tm, Medium Salt / Tm, High Salt / Tm, Low Salt: oligo 2 (5′-AAA-AAA-AAA-A), 10 mM phosphate, 1 mM EDTA, pH 7.2; for Tm, Medium Salt: 140 mM NaCl; for Tm: DNA (dA)10; for Tm, High Salt: 500 mM NaCl; for Tm, Low Salt: no sodium chloride
From the text: as §1, §2

5′-AAA-AAA-AAA-AAA-AAA = assay: as above; assay type: binding; conditions: oligo 14 (5′-AAA-AAA-AAA-AAA-AAA); 10 mM phosphate, 1 mM EDTA, 140 mM NaCl, pH 7.2
From the text: as §1, §2
14. 5′-AAA-AAA-AAA-AAA-AAA (See SEQ ID NO:20)

[4] = system: A10 (5′-GATCCAAAAAAAAAAG); assay type: binding
32P-end-labelled dA10 = assay: Binding to dA10, gel retardation (PAGE); conditions: for binding to the corresponding dA10: summary statement, illustrated by gel retardation and Tm
Description: (§3) 1. As shown in Example 56 below PNA-oligonucleotide complexes will migrate slower than the single stranded oligonucleotide upon electrophoresis in polyacrylamide gels. Consequently, such experiments were performed with Acr^1-(Taeg)10-Lys-NH2 and ^32P-end-labelled dA10.
The sample was cooled in ice (15 min) and analyzed by gel electrophoresis in polyacrylamide (PAGE). To 10 μl of the sample was added 2 μl 50% glycerol, 5μl TBE (TBE=90 mM Tris-borate, 1 mM EDTA, pH 8.3), and the sample was analysed by PAGE (15% acrylamide, 0.5% bisacrylamide) in TBE buffer at 4° C. A 10 μl portion of the sample was lyophilized and redissolved in 10 μl 80% formamide, 1 TBE, heated to 90° C. (5 min), and analyzed by urea/PAGE (15% acrylamide, 0.5% bisacrylamide, 7 M urea) in TBE. [^32P]-containing DNA bands were visualized by autoradiography using intensifying screens and Agfa Curix RPI X-ray films exposed at −80° C. for 2 h.
Oligonucleotides were synthesized on a Biosearch 7500 DNA synthesizer, labelled with γ[^32P]-ATP (Amersham, 5000 Ci/mmol) and polynucleotide kinase, and purified by PAGE using standard techniques (Maniatis et al. (1986): A laboratory manual, Cold Spring Harbor Laboratories).
(§4) In FIG. 11a and in FIG. 11b, the 5′-^32P-labelled oligonucleotide 1 is 5′-GATCCA10G. This was incubated in the absence (lanes 1 and 4) or presence of Acr-T10-Lys-NH2 (in lanes 2 and 5, 25 pmol; lanes 3 and 6, 75 pmol) and also in the absence (lanes 1 to 3) or presence (lanes 4 to 6) of “oligo-2” which was 5′-GATCCT10G. 5′-^32P-labelled oligo 2 was incubated in the absence (lane 7) or presence of the same PNA (lane 8, 25 pmol; lane 9, 75 pmol) and analysed by PAGE as described above in detail.
The results in FIG. 11a show retardation of the ssDNA as it is hybridised by PNA (lanes 1 to 3) and the ability of PNA to compete with a DNA oligonucleotide, for labelled complementary oligonucleotide (lanes 4 to 6). The intensity of the band attributable to dsDNA grows faster as the PNA concentration is raised and is replaced by a band representing the slower moving PNA-DNA hybride. […]

[5] = system: A10 target in plasmid pA10KS / pT10KS, transcription by RNA polymerase; assay: Inhibition of transcription by PNA; assay type: biochemical
Description: RNA transcripts were visualized by autoradiography. The plasmid used was: Lane 1 to 5; pA10KS (the A10 target is positioned on the transcribed strand). Lane 6 to 10: pT10KS (the A10 target is positioned on the non-transcribed strand). The plasmid was treated with the following restriction enzymes prior to the experiment: Lanes 1, 4, 6 and 9: PyuII; lanes 2, 5, 7 and 10: Xha I; lanes 3 and 8: BamHI. […] If the PNA is bound to the non-transcribed strand of the plasmid, transcription is not arrested.

RNA-G = assay: Drop in A260 on mixing PNA with RNA; assay type: binding
Description: (§5) The hybrid formed between RNA-A (poly rA) and PNA-T10-Lys-NH2 melts at such high temperature that it cannot be measured (>90 C). […] Thereafter the sample is heated to 90° C. for 5 min, cooled to room temperature and kept at this temperature for 30 minutes and finally stored at 5° C. for 30 min.

RNA-U = assay: Drop in A260 on mixing PNA with RNA; assay type: binding
Description: as §5

RNA-A = assay: Drop in A260 on mixing PNA with RNA; assay type: binding
Description: as §5

RNA-C = assay: Drop in A260 on mixing PNA with RNA; assay type: binding
Description: as §5

[6] = system: 32P-dsDNA (A10/T10) target, pT10 fragment; assay: Stability of PNA-dsDNA complexes; assay type: binding; conditions: PNA bound to A10/T10 dsDNA target; heated 10 min with competing GATCCA10G, S1 nuclease
Description: Complexes between PNA-Tn and ^32P-dsDNA (A10/T10) target were formed (60 min, 37° C.). The complexes were then incubated at the desired temperature in the presence of excess oligo-dA10 for 10 min, cooled to RT and probed with KMnO4.
A mixture of 200 cps ^32P-pT10 fragment (as in Example 65), 0.5 μg calf thymus DNA and 300 ng of the desired PNA (either T10-LysNH2, T8-LysNH2 or T6-LysNH2) was incubated in 100 μl 200 mM NaCl, 50 mM Na-acetate, pH 4.5, 1 mM ZnSO4 for 60 min at 37° C. A 2 μg portion of oligonucleotide GATCCA10G was added to compete with the PNA for the labelled oligonucleotide and each sample was heated for 10 min at the temperature indicated, cooled in ice for 10 min and warmed to 20° C. 50 U of S1 nuclease was added and the quantity of radio-activity liberated as single nucleotides was measured.

RNA-A (poly rA) = assay: Melting of PNA-RNA hybrid; assay type: binding; conditions: hybrid with RNA-A (poly rA); cannot be measured
Description: as §5

32P-end-labelled dT10 = assay: Gel retardation (PAGE), control experiment; assay type: binding; conditions: same conditions
Description: as §3, §4
The results in FIG. 11a show retardation of the ssDNA as it is hybridised by PNA (lanes 1 to 3) and the ability of PNA to compete with a DNA oligonucleotide, for labelled complementary oligonucleotide (lanes 4 to 6). The intensity of the band attributable to dsDNA grows faster as the PNA concentration is raised and is replaced by a band representing the slower moving PNA-DNA hybride.

5′-AAA-AAA-AA = assay: Melting temperature (Tm) of hybrid with oligodeoxyribonucleotide; assay type: binding; conditions: oligo 1 (5′-AAA-AAA-AA), 10 mM phosphate, 1 mM EDTA, pH 7.2
From the text: as §1, §2
1. 5′-AAA-AAA-AA (See SEQ ID NO:12)

[7] = A260 before mixing 0.600, heated to 90° C. for 5 min, cooled

Substance: TTT-TTC-TTT-T-Lys-NH2
- % Binding of 32P-oligo to PNA-Sepharose [1]: 50%
- Tm, Medium Salt ((dA)5(dG)(dA)4): 72.0 °C
- Tm, High Salt ((dA)5(dG)(dA)4): 72.5 °C
- Tm, Low Salt ((dA)5(dG)(dA)4): 74.5 °C
- % Binding of 32P-oligo to PNA-Sepharose [2]: 13%
- Tm, Medium Salt (5′-AAA-AGA-AGA-A): 58.0 °C
- % Binding of 32P-oligo to PNA-Sepharose [3]: 45%
- Tm, Medium Salt (5′-AAG-AAG-AAA-A): 57.5 °C

Substance: Ac-TTT-TTT-TTT-T-Lys-NH2 [f]
- Tm, Medium Salt ((dA)10): 74 °C
- Tm, Medium Salt ((dA)5(dG)(dA)4): 62.0 °C
- Tm, Medium Salt (5′-AAA-AGA-AGA-A): 43.5 °C
- Tm, Medium Salt (5′-AAG-AAG-AAA-A): 46.5 °C

Substance: 5′-TTT-TTT-TTT-TTT-TTT [Oligo 13]
- Tm, Medium Salt (5′-AAA-AAA-AAA-AAA-AAA): 39.0 °C

Substance: TTC-TTC-TTT-T-Lys-NH2 [T8C2]
- % Binding of 32P-oligo to PNA-Sepharose [1]: 52%
- % Binding of 32P-oligo to PNA-Sepharose [2]: 14%
- % Binding of 32P-oligo to PNA-Sepharose [3]: 42%
- % Binding of 32P-oligo to PNA-Sepharose [4]: 15%

Substance: TTT-TTT-TTT-T-Lys-NH2 [H-T10-LysNH2]
- binding to the corresponding dA10 (32P-end-labelled dA10): very efficient binding
- % Binding of 32P-oligo to PNA-Sepharose [1]: 11%
- Tm ((dA)10; Example 55): 73 °C and 73 °C °C
- Tm ((dA)10; Example 61): 73 °C °C
- Tm, Medium Salt ((dA)10): 72.5 °C
- Tm, High Salt ((dA)10): 73.0 °C
- Tm, Low Salt ((dA)10): 73.0 °C
- Tm, Medium Salt ((dA)5(dG)(dA)4): 59.0 °C
- Tm, High Salt ((dA)5(dG)(dA)4): 61.5 °C
- Tm, Low Salt ((dA)5(dG)(dA)4): 60.0 °C
- % Binding of 32P-oligo to PNA-Sepharose [2]: 11%
- Tm, Medium Salt (5′-AAA-AGA-AGA-A): 46.0 °C
- % Binding of 32P-oligo to PNA-Sepharose [3]: 11%
- Tm, Medium Salt (5′-AAG-AAG-AAA-A): 47.0 °C
- transcription of RNA ([5]; PNA bound to the non-transcribed strand (pT10KS)): not arrested
- transcription of RNA ([5]; PNA bound to the transcribed strand (pA10KS)): arrested at the PNA binding site
- A260 After Mixing (RNA-G; A260 before mixing 0.600): 0.514
- A260 After Mixing and Heating (RNA-G; [7]): 0.517
- A260 After Mixing (RNA-U; A260 before mixing 0.600): 0.538
- A260 After Mixing and Heating (RNA-U; [7]): 0.528
- A260 After Mixing (RNA-A; A260 before mixing 0.600): 0.389
- A260 After Mixing and Heating (RNA-A; [7]): 0.360
- A260 After Mixing (RNA-C; A260 before mixing 0.600): 0.540
- A260 After Mixing and Heating (RNA-C; [7]): 0.532
- Tm of PNA/DNA complex [6]: > 70 °C
- melting temperature of hybrid (RNA-A (poly rA)): > 90 C
- % Binding of 32P-oligo to PNA-Sepharose [4]: 51%

Substance: Acr-TTT-TTT-TTT-T-Lys-NH2 [e]
- migration of 32P-end-labelled dA10 in polyacrylamide gel (32P-end-labelled dA10; native and denaturing gel conditions): retarded migration
- binding to the corresponding dA10 (32P-end-labelled dA10): very efficient binding
- Tm, Medium Salt ((dA)10): 86.0 °C
- Tm, High Salt ((dA)10): ˜90 °C
- Tm, Low Salt ((dA)10): 84.5 °C
- migration of 32P-end-labelled dT10 in polyacrylamide gel (32P-end-labelled dT10): no retardation

Substance: TTT-TTT-TT-Lys-NH2 [b]
- Tm, Medium Salt (5′-AAA-AAA-AA; 140 mM NaCl): 51.5 °C
- Tm, High Salt (5′-AAA-AAA-AA; 500 mM NaCl): 50.0 °C
- Tm, Low Salt (5′-AAA-AAA-AA; no sodium chloride): 56.0 °C
- Tm of PNA/DNA complex [6]: 60 °C

— patent US6357163B1, “Use of nucleic acid analogues in diagnostics and analytical procedures” (priority 1991, dated 2002)
